Data on 22 sequences can be found in patent publication US8012944B2, “Method for treating cancer using IAP antisense oligomer and chemotherapeutic agent” (Pharmascience Inc., priority 2003, dated 2011).

Oligonucleotides are written 5' to 3', each unit as a sugar letter and its base; * is a phosphorothioate linkage, no mark a phosphodiester; rarer units and linkages stand in square brackets, end groups in braces. Plain capitals give the bases only. d = 2'-deoxy (DNA); m = 2'-O-methyl

For data set [1], the system named is XIAP mRNA. The experiment in a line: XIAP mRNA knock-down in H460 cells (real-time RT-PCR / TaqMan). In kind it is cell-based, human. The procedure:
RNA was extracted from cells lysed in RLT buffer (QIAGEN, Valencia, Calif.), and purified using QIAGEN RNeasy columns/kits. Real-time quantitative PCR was performed on a Perkin-Elmer ABI 7700 Prism PCR machine. RNA was reverse transcribed and amplified according to the TaqMan Universal PCR Master Mix protocol of PE Biosystems, using primers and probes designed to specifically recognize XIAP, HIAP1, survivin, or GAPDH. For human survivin, the forward primer was 5′-[…]-3′ (SEQ ID NO: 263), the reverse primer was 5′-GAAAGGAAAGCGCAACCG-3′ (SEQ ID NO: 264), and the probe was 5′-(FAM)[…](TAMRA)-3′ (SEQ ID NO: 265). For human HIAP1, the forward primer was 5′-[…]-3′ (SEQ ID NO: 266), the reverse primer was 5′-[…]-3′ (SEQ ID NO: 267), and the probe was 5′-(FAM)[…](TAMRA)-3′ (SEQ ID NO: 268). For human XIAP, the forward primer was 5′-[…]-3′ (SEQ ID NO: 269), the reverse primer was 5′-[…]-3′ (SEQ ID NO: 270), and the probe was 5′-(FAM)[…](TAMRA)-3′ (SEQ ID NO: 271). For human GAPDH, the forward primer was 5′-GAAGGTGAAGGTCGGAGTC-3′ (SEQ ID NO: 272), the reverse primer was 5′-GAAGATGGTGATGGGATTC-3′ (SEQ ID NO: 273), and the probe was 5′-(JOE)[…](TAMRA)-3′ (SEQ ID NO: 274). FAM is 6-carboxyfluoroscein, JOE is 6-carboxy-4,5-dichloro-2,7-dimethoxyfluoroscein, and TAMRA is 6-carboxy-N,N,N′,N′-tetramethylrhodamine. FAM and JOE are 5′ reporter dyes, while TAMRA is a 3′ quencher dye.
Relative quantification of gene expression was performed as described in the PE Biosystems manual using GAPDH as an internal standard. The comparative Ct (cycle threshold) method was used for relative quantitation of IAP mRNA levels compared to GAPDH mRNA levels. Briefly, real-time fluorescence measurements were taken at each PCR cycle and the threshold cycle (Ct) value for each sample was calculated by determining the point at which fluorescence exceeded a threshold limit of 30 times the baseline standard deviation. The average baseline value and the baseline SD are calculated starting from the third cycle baseline value and stopping at the baseline value three cycles before the signal starts to exponentially rise. The PCR primers and/or probes for the specific IAPs were designed to span at least one exon-intron boundary separated by 1 kb or more of genomic DNA, to reduce the possibility of amplifying and detecting genomic DNA contamination. The specificity of the signal, and possible contamination from DNA, were verified by treating some RNA samples with either DNase or RNase, prior to performing the reverse transcription and PCR reaction steps.
A portion of the 96 nucleobase oligomers depicted in Table 2 were rescreened for their ability to knock-down XIAP mRNA in NCI-H460 cells at […] post-transfection.
One day prior to transfection, H460 cells were plated in 6- or 96-well tissue culture plates. Phosphorothioate antisense oligonucleotides were delivered into cells with Lipofectamine 2000 (Life Technologies) in the form of liposome-oligonucleotide complexes. Following a 4.5 or 6 h transfection, the transfection medium was replaced with RPMI medium containing 10% FBS, and the cells incubated for another 24 or 48 h.
Total RNA from H460 cells treated with liposome-oligonucleotide complexes for 6 hours was immediately isolated using RNeasy mini spin columns and DNase treatment (QIAGEN, Valencia, Calif.). Specific XIAP mRNA was measured using a real-time quantitative RT-PCR method. […]
(In qPCR the cycle at which signal appears reflects the starting amount.)

Data set [2] concerns XIAP mRNA. Described as above. In kind it is cell-based, human. The conditions noted are these: 2 × 2 MBO; NCI-H460 cells, 9 hours post-transfection; relative level (mock control 1.01).

On to “TGAGAGCCCTTTTTTTGTT (antisense; sugars from the 5' end m2 d15 m2, backbone and T or U not given here; further chemistry not fully specified) [Code D1]”, for which the “XIAP down-regulation H460 RNA” value in the data set on XIAP mRNA [1] turned out to be 75%. Further, in the data set on XIAP mRNA [2], the “XIAP RNA” value was 0.25.

For the sequence “TACACTTAGAAATTAAATC (antisense; sugars from the 5' end m2 d15 m2, backbone, methylation of C and T or U not given here; further chemistry not fully specified) [Code A12]”, the “XIAP down-regulation H460 RNA” value in the data set on XIAP mRNA [1] is given as 46%. For the same sequence, the “XIAP RNA” value in the data set on XIAP mRNA [2] was determined as 0.54.

As for “TTTCTCAGTAGTTCTTACC (antisense; sugars from the 5' end m2 d15 m2, backbone, methylation of C and T or U not given here; further chemistry not fully specified) [Code D9]”, the “XIAP down-regulation H460 RNA” value with XIAP mRNA [1] was determined as 39%. Moreover, the “XIAP RNA” value in the data set on XIAP mRNA [2] amounted to 0.73.

Turning to “TCTAGAGGGTGGCTCAGGA (antisense; sugars from the 5' end m2 d15 m2, backbone and T or U not given here; further chemistry not fully specified) [Code B1]”, the “XIAP down-regulation H460 RNA” value in the data set with XIAP mRNA [1] is listed as 66%. Further, the “XIAP RNA” value with XIAP mRNA [2] turned out to be 0.34.

“AGATGGTATCATCAATTCT (antisense; sugars from the 5' end m2 d15 m2, backbone, methylation of C and T or U not given here; further chemistry not fully specified) [Code F9]”: in the data set on XIAP mRNA [1], the “XIAP down-regulation H460 RNA” value is on record as 19%. Further, the “XIAP RNA” value with XIAP mRNA [2] came out at 0.97.

As to “GAGTAAAAAAAATGGATAA (mG*mAdGdTdAdAdAdAdAdAdAdAdTdGdGdAdTmA*mA; antisense) [Code G11]”, the “XIAP down-regulation H460 RNA” value in the data set on XIAP mRNA [1] is 33%. For the same sequence, in the data set on XIAP mRNA [2], the “XIAP RNA” value is given as 0.67.

“GGAAGATTTGTTGAATTTG (antisense; sugars from the 5' end m2 d15 m2, backbone and T or U not given here; further chemistry not fully specified) [Code F7]”: the “XIAP down-regulation H460 RNA” value in the data set on XIAP mRNA [1] came out at 69%. Besides, the “XIAP RNA” value in the data set with XIAP mRNA [2] was 0.3.

As for “GTTATAGGAGCTAACAAAT (antisense; sugars from the 5' end m2 d15 m2, backbone and T or U not given here; further chemistry not fully specified) [Code B3]”, in the data set with XIAP mRNA [1], the “XIAP down-regulation H460 RNA” value was 34%. The “XIAP RNA” value in the data set with XIAP mRNA [2] turned out to be 0.64.

As to “CTTGAAAGTAATGACTGTG (antisense; sugars from the 5' end m2 d15 m2, backbone, methylation of C and T or U not given here; further chemistry not fully specified) [Code C11]”, the “XIAP down-regulation H460 RNA” value in the data set with XIAP mRNA [1] was determined as 52%. For the same sequence, the “XIAP RNA” value in the data set on XIAP mRNA [2] worked out at 0.44.

Turning to “GGCCAGTTCTGAAAGGACT (antisense; sugars from the 5' end m2 d15 m2, backbone and T or U not given here; further chemistry not fully specified) [Code D6]”, the “XIAP down-regulation H460 RNA” value in the data set on XIAP mRNA [1] is reported as 60%. In the data set on XIAP mRNA [2], the “XIAP RNA” value was found to be 0.39.

Turning to “GCAGAATAAAACTAATAAT (antisense; sugars from the 5' end m2 d15 m2, backbone and T or U not given here; further chemistry not fully specified) [Code D2]”, the “XIAP down-regulation H460 RNA” value in the data set with XIAP mRNA [1] was 39%. The “XIAP RNA” value in the data set with XIAP mRNA [2] was 0.66.

With “TGAATTAATTTTTAATATC (antisense; sugars from the 5' end m2 d15 m2, backbone and T or U not given here; further chemistry not fully specified) [Code H1]”, in the data set on XIAP mRNA [1], the “XIAP down-regulation H460 RNA” value came to 13%. Besides, the “XIAP RNA” value with XIAP mRNA [2] is listed as 0.87.

“ATTCGCACAAGTACGTGTT (antisense; sugars from the 5' end m2 d15 m2, backbone, methylation of C and T or U not given here; further chemistry not fully specified) [Code D12]”: the “XIAP down-regulation H460 RNA” value in the data set on XIAP mRNA [1] is on record as 77%. In addition, in the data set with XIAP mRNA [2], the “XIAP RNA” value was 0.23.

Take “TATATATTCTTGTCCCTTC (antisense; sugars from the 5' end m2 d15 m2, backbone, methylation of C and T or U not given here; further chemistry not fully specified) [Code A9]”: in the data set with XIAP mRNA [1], the “XIAP down-regulation H460 RNA” value was determined as 62%. The “XIAP RNA” value with XIAP mRNA [2] is 0.46.

Consider “AAGTCAGTTCACATCACAC (antisense; sugars from the 5' end m2 d15 m2, linkages s1 o16 s1 (s phosphorothioate, o phosphodiester), methylation of C not given here) [Code F11]”, for which, in the data set with XIAP mRNA [1], the “XIAP down-regulation H460 RNA” value stood at 64%. Besides, in the data set on XIAP mRNA [2], the “XIAP RNA” value was determined as 0.36.

“TTGTAGACTGCGTGGCACT (antisense; sugars from the 5' end m2 d15 m2, backbone and T or U not given here; further chemistry not fully specified) [Code B5]”: in the data set on XIAP mRNA [1], the “XIAP down-regulation H460 RNA” value is 61%. Also, the “XIAP RNA” value in the data set with XIAP mRNA [2] turned out to be 0.38.

“GTTAGTGATGGTGTTTTGT (antisense; sugars from the 5' end m2 d15 m2, backbone and T or U not given here; further chemistry not fully specified) [Code E9]”: the “XIAP down-regulation H460 RNA” value in the data set with XIAP mRNA [1] amounted to 43%. Also, in the data set on XIAP mRNA [2], the “XIAP RNA” value was determined as 0.69.

Turning to “AGCACATGGGACACTTGTC (antisense; sugars from the 5' end m2 d15 m2, backbone, methylation of C and T or U not given here; further chemistry not fully specified) [Code B11]”, the “XIAP down-regulation H460 RNA” value in the data set on XIAP mRNA [1] stood at 63%. Further, the “XIAP RNA” value in the data set on XIAP mRNA [2] is 0.39.

Consider “ATTCAATCAGGGTAATAAG (antisense; sugars from the 5' end m2 d15 m2, backbone, methylation of C and T or U not given here; further chemistry not fully specified) [Code E11]”, for which, in the data set on XIAP mRNA [1], the “XIAP down-regulation H460 RNA” value is recorded as 48%. The “XIAP RNA” value in the data set with XIAP mRNA [2] is 0.52.

Take “AGCACATTGTTTACAAGTG (antisense; sugars from the 5' end m2 d15 m2, backbone, methylation of C and T or U not given here; further chemistry not fully specified) [Code A11]”: the “XIAP down-regulation H460 RNA” value in the data set with XIAP mRNA [1] is given as 68%. In addition, the “XIAP RNA” value in the data set on XIAP mRNA [2] amounted to 0.36.

“ACACGACCGCTAAGAAACA (antisense ACACGACCGCNAAGAAACA; sugars from the 5' end m2 d15 m2, linkages s1 o16 s1 (s phosphorothioate, o phosphodiester), the base at N not given here) [Code H2]”: the “XIAP down-regulation H460 RNA” value in the data set on XIAP mRNA [1] amounted to 46%. The “XIAP RNA” value with XIAP mRNA [2] was 0.56.

Consider “CAGATATATATGTAACACT (antisense; sugars from the 5' end m2 d15 m2, backbone and T or U not given here; further chemistry not fully specified) [Code C1]”, for which the “XIAP down-regulation H460 RNA” value in the data set on XIAP mRNA [1] was 66%. Further, the “XIAP RNA” value in the data set with XIAP mRNA [2] was found to be 0.3.
